Patent publication US20240398812A1 (Caraway Therapeutics, Inc., priority 2021, published 2024)

Tests used:
Format in all cases: cell-based
Settings in all cases: Table 3, compounds 101-177
[1] = biological target: human TRPML1 (Homo sapiens, UniProt Q9GZU1); assay: Fluorescent TRPML1 assay (Fluo4-AM calcium fluorescence, HEK-293 Trex cells)
Procedure, shortened: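 Agonist EC50 from non-linear regression of percent activity versus on-plate controls, calcium signal read at 480/540 nm. Compounds spanned 6 nM–20 μM final in triplicate. Cells: doxycycline-induced HEK-293 Trex with cell-surface human TRPML1 mutant, Fluo4-AM loaded, in Ringer's containing 10 mM calcium.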

[2] = biological target: T1, TRPML2 (Homo sapiens, UniProt Q8IZK6); assay: Fluorescent TRPML2 assay (as for TRPML1)
T1 construct: expressed in transfected cells
T1 sequence (Q8IZK6 1-566): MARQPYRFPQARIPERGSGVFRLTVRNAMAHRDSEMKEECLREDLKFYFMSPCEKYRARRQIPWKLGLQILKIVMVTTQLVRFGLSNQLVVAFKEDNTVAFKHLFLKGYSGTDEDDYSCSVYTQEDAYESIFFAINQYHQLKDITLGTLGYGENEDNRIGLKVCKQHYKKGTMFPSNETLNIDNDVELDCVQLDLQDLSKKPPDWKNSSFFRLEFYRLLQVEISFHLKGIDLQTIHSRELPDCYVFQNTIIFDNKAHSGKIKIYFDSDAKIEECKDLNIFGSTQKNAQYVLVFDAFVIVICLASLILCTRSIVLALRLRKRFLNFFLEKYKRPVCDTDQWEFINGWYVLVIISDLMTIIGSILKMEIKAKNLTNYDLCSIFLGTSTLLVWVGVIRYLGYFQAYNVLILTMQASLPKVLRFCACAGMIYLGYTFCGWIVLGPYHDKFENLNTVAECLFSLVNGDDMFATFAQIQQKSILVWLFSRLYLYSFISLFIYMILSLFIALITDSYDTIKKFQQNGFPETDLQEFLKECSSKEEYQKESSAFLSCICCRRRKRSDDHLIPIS
Experimental: HEK-293 Trex cells were stably transfected with a construct consisting of the human coding sequence for TRPML1 cloned into the tet-inducible plasmid pCDNA5 T/O. Mutations were introduced into the TRPML1 sequence to facilitate expression on the cell surface (Silvia Vergarajauregui, Rosa Puertollano Traffic. 2006 March; 7 (3): 337-353). Briefly, the cells are cultured in 150 mm round tissue culture dishes containing 20 mL of media. The day before the assay the cells are rinsed with DPBS —Ca—Mg and then treated briefly with Trypsin-EDTA. The Trypsin-EDTA is diluted with growth media, and cells are counted. 38×10^6 cells are re-plated into 150 mm round tissue culture dishes in media containing 0.5 ug/mL doxycycline to induce expression of hTRPML1.
The day of the experiment cells are lifted from the plates as above and collected by centrifugation. The cells are then suspended in dye loading buffer consisting of Ringer's solution supplemented with 0.1% Pluronic Acid and 1 micromolar Fluo4-AM dye. Cells are loaded for ˜60 minutes in the dark with occasional mixing. The cells are collected by centrifugation, the loading media aspirated, and the cells resuspended in 25 mL Ringer's solution and incubated ˜60 minutes in the dark. The cells are again collected by centrifugation, rinsed in Ringer's Solution and resuspended to 0.2×10^6 cells/mL in modified Ringer's solution containing 10 mM calcium.
Compounds are dissolved to a concentration of 10 millimolar with DMSO. Compound plates are created by dispensing compounds into 384 well black wall clear bottom plates (Greiner 781091). Positive and negative controls are included on each plate. Typically, different amounts of each compound are tested ranging from 100 nanoMoles (20 micromolar final concentration) decreasing in half-log steps to 31 picoMoles (6 nanomolar final concentration). Each concentration is typically tested in triplicate.
50 microliters of dye-loaded cells are dispensed into each well of the compound assay plate created above. The fluorescence in each well is then determined with an excitation wavelength of 480 nm and an emission wavelength of 540 nm using either a Molecular Devices SpectraMax multimode plate reader or a Hamamatsu FDSS/uCell plate imager.
The resulting fluorescence for each well is exported as an ascii file and loaded into our LIMS for analysis. The percent activity of each compound at each concentration is determined by comparison to the positive and negative control wells included in each plate.
Assays for TRPML2 and TRPML3 were performed as above for TRPML1, by substituting the appropriate TRPML2 or TRPML3 subtype for the TRPML1.
EC50 values were calculated using a non-linear regression of Prism. In the table, “A” indicates an EC50 of less than 100 nM, “B” indicates an EC50 range from 100 nM to 500 nM; “C” indicates an EC50 range from 500 nM to 2 μM; and “D” indicates an EC50 greater than 2 μM.

[3] = biological target: T2, TRPML3 (Homo sapiens, UniProt Q8TDD5); assay: Fluorescent TRPML3 assay (as for TRPML1)
T2 construct: expressed in transfected cells
T2 sequence (Q8TDD5 1-553): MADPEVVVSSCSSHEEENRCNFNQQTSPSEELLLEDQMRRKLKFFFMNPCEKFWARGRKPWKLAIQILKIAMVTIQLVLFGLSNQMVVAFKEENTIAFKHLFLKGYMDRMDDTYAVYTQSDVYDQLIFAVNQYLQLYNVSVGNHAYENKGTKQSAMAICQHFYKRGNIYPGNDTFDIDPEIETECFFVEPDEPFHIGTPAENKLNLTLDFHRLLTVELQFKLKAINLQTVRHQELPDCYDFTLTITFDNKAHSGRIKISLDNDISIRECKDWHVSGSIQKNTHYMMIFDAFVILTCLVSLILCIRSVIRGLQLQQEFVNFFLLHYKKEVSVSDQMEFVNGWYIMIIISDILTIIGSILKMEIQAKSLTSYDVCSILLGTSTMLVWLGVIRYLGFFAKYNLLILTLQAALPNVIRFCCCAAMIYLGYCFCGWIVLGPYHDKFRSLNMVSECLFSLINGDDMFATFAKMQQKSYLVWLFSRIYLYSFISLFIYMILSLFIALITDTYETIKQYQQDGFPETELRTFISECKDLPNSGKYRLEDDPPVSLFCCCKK
Procedure, shortened: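 EC50 came from non-linear regression of percent activity, set against on-plate positive and negative controls, using Fluo4 fluorescence (ex 480, em 540 nm). Compounds ran in triplicate from 6 nM to 20 µM final in half-log steps. Doxycycline-induced (0.5 ug/mL) HEK-293 Trex cells expressing surface-directed mutant channel were in 10 mM calcium Ringer's.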

Chain of human TRPML1 (Q9GZU1 whole entry L15A/L16A/L577A/L578A, form open): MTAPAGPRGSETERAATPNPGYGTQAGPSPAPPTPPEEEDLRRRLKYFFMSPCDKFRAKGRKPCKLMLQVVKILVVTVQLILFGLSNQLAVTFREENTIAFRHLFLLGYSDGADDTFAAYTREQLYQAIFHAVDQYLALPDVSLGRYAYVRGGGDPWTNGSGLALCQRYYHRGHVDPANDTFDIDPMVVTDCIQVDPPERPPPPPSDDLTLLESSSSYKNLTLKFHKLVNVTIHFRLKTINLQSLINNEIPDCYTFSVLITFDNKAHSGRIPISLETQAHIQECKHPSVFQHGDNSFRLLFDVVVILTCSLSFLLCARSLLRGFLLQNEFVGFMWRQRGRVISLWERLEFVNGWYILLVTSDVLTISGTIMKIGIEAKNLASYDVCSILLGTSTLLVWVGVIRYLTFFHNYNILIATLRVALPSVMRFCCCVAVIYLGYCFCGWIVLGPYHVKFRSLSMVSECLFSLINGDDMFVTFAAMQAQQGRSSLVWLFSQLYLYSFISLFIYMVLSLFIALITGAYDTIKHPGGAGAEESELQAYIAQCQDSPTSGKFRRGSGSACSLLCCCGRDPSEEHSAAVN

Q: How did the EC50 [1] turn out when CC(C)C(=O)N1CCN(c2ncnc3c2c(-c2ccccc2F)cn3-c2cc(C#N)ccn2)[C@@H](C)C1 [Compound 102, (S)-2-(5-(2-fluorophenyl)-4-(4-isobutyryl-2-methylpiperazin-1-yl)-7H-pyrrolo[2,3-d]pyrimidin-7-yl)isonicotinonitrile] was run?
A: < 100 nM

Q: And the EC50 [2]?
A: 100 to 500 nM

Q: And the EC50 [3]?
A: < 100 nM

Q: Which results are given for C[C@H]1CN(C(=O)C(C)(C)C)CCN1c1ncnc2c1c(-c1ccccc1F)cn2-c1cc(C#N)ccn1 [Compound 103, (S)-2-(5-(2-fluorophenyl)-4-(2-methyl-4-pivaloylpiperazin-1-yl)-7H-pyrrolo[2,3-d]pyrimidin-7-yl)isonicotinonitrile]?
A: EC50 [1]: < 100 nM; EC50 [2]: < 100 nM; EC50 [3]: < 100 nM

Q: C[C@H]1CN(C(=O)C(C)(C)C)CCN1c1ncnc2c1c(C1CC1)cn2-c1cc(C#N)ccn1 [Compound 104, (S)-2-(5-cyclopropyl-4-(2-methyl-4-pivaloylpiperazin-1-yl)-7H-pyrrolo[2,3-d]pyrimidin-7-yl)isonicotinonitrile] was tested. Which EC50 [1] did it give?
A: < 100 nM

Q: What about the EC50 [2] of the same molecule?
A: 500 to 2000 nM

Q: And the EC50 [3]?
A: < 100 nM

Q: With CC(C)C(=O)N1CCN(c2ncnc3c2c(-c2ccccc2F)cn3-c2cc(C#N)ccn2)C[C@H]1C [Compound 107, (R)-2-(5-(2-fluorophenyl)-4-(4-isobutyryl-3-methylpiperazin-1-yl)-7H-pyrrolo[2,3-d]pyrimidin-7-yl)isonicotinonitrile] as the molecule, how does the EC50 [1] read?
A: < 100 nM

Q: And the EC50 [2]?
A: 100 to 500 nM

Q: What about the EC50 [3] of the same molecule?
A: < 100 nM

Q: Which EC50 [1] does the source give for CC(C)(C)C(=O)N1CCN(c2ncnc3c2c(-c2ccccc2F)cn3-c2cc(C#N)ccn2)CC1 [Compound 108, 2-(5-(2-fluorophenyl)-4-(4-pivaloylpiperazin-1-yl)-7H-pyrrolo[2,3-d]pyrimidin-7-yl)isonicotinonitrile] here?
A: < 100 nM

Q: What about the EC50 [2] of the same molecule?
A: < 100 nM

Q: And the EC50 [3]?
A: < 100 nM

Q: With C[C@@H]1CN(c2ncnc3c2c(-c2ccccc2F)cn3-c2cc(C#N)ccn2)CCN1C(=O)C(C)(C)C [Compound 109, (R)-2-(5-(2-fluorophenyl)-4-(3-methyl-4-pivaloylpiperazin-1-yl)-7H-pyrrolo[2,3-d]pyrimidin-7-yl)isonicotinonitrile] as the molecule, how does the EC50 [1] read?
A: < 100 nM

Q: What about the EC50 [2] of the same molecule?
A: < 100 nM

Q: And the EC50 [3]?
A: < 100 nM

Q: Which EC50 [1] does the source give for C[C@H]1CN(C(=O)C2(F)CC2)CCN1c1ncnc2c1c(-c1ccccc1F)cn2-c1cc(C#N)ccn1 [Compound 115, (S)-2-(4-(4-(1-fluorocyclopropane-1-carbonyl)-2-methylpiperazin-1-yl)-5-(2-fluorophenyl)-7H-pyrrolo[2,3-d]pyrimidin-7-yl)isonicotinonitrile] here?
A: < 100 nM

Q: And the EC50 [2]?
A: < 100 nM

Q: And the EC50 [3]?
A: < 100 nM

Q: Which EC50 [1] does the source give for C[C@H]1CN(C(=O)C(C)(C)C)CCN1c1ncnc2c1c(-c1ccccn1)cn2-c1cc(C#N)ccn1 [Compound 117, (S)-2-(4-(2-methyl-4-pivaloylpiperazin-1-yl)-5-(pyridin-2-yl)-7H-pyrrolo[2,3-d]pyrimidin-7-yl)isonicotinonitrile] here?
A: < 100 nM

Q: What about the EC50 [2] of the same molecule?
A: 500 to 2000 nM

Q: What about the EC50 [3] of the same molecule?
A: 100 to 500 nM

Q: Which EC50 [1] does the source give for CC(C)C(=O)N1CCN(c2ncnc3c2c(-c2ccccc2)cn3-c2cc(C#N)ccn2)[C@@H](C)C1 [Compound 118, (S)-2-(4-(4-isobutyryl-2-methylpiperazin-1-yl)-5-phenyl-7H-pyrrolo[2,3-d]pyrimidin-7-yl)isonicotinonitrile] here?
A: < 100 nM

Q: What about the EC50 [2] of the same molecule?
A: 500 to 2000 nM

Q: And the EC50 [3]?
A: < 100 nM

Q: C[C@H]1CN(C(=O)C(C)(C)C)CCN1c1ncnc2c1c(-c1ccccc1)cn2-c1cc(C#N)ccn1 [Compound 120, (S)-2-(4-(2-methyl-4-pivaloylpiperazin-1-yl)-5-phenyl-7H-pyrrolo[2,3-d]pyrimidin-7-yl)isonicotinonitrile] was tested. Which EC50 [1] did it give?
A: < 100 nM

Q: And the EC50 [2]?
A: 100 to 500 nM

Q: And the EC50 [3]?
A: < 100 nM

Q: C[C@@H]1CN(c2ncnc3c2c(-c2ccccc2)cn3-c2cc(C#N)ccn2)CCN1C(=O)C(C)(C)C [Compound 121, (R)-2-(4-(3-methyl-4-pivaloylpiperazin-1-yl)-5-phenyl-7H-pyrrolo[2,3-d]pyrimidin-7-yl)isonicotinonitrile] was tested. Which EC50 [1] did it give?
A: < 100 nM

Q: And the EC50 [2]?
A: 100 to 500 nM

Q: What about the EC50 [3] of the same molecule?
A: < 100 nM

Q: How did the EC50 [1] turn out when C[C@@H]1CN(c2ncnc3c2c(C2CC2)cn3-c2cc(C#N)ccn2)CCN1C(=O)C(C)(C)C [Compound 122, (R)-2-(5-cyclopropyl-4-(3-methyl-4-pivaloylpiperazin-1-yl)-7H-pyrrolo[2,3-d]pyrimidin-7-yl)isonicotinonitrile] was run?
A: < 100 nM

Q: And the EC50 [2]?
A: 100 to 500 nM

Q: And the EC50 [3]?
A: 100 to 500 nM

Q: Which results are given for C[C@@H]1CN(c2ncnc3c2c(-c2ccccc2F)cn3-c2cc(C#N)ccn2)CCN1C(=O)C(C)(C)F [Compound 126, (R)-2-(4-(4-(2-fluoro-2-methylpropanoyl)-3-methylpiperazin-1-yl)-5-(2-fluorophenyl)-7H-pyrrolo[2,3-d]pyrimidin-7-yl)isonicotinonitrile]?
A: EC50 [1]: < 100 nM; EC50 [2]: 100 to 500 nM; EC50 [3]: < 100 nM

Q: For C[C@H]1CN(C(=O)C2(C)CC2)CCN1c1ncnc2c1c(-c1ccccc1)cn2-c1cc(C#N)ccn1 [Compound 128, (S)-2-(4-(2-methyl-4-(1-methylcyclopropane-1-carbonyl)piperazin-1-yl)-5-phenyl-7H-pyrrolo[2,3-d]pyrimidin-7-yl)isonicotinonitrile], which EC50 [1] is on record?
A: < 100 nM

Q: And the EC50 [2]?
A: < 100 nM

Q: And the EC50 [3]?
A: < 100 nM

Q: Which results are given for C[C@@H]1CN(c2ncnc3c2c(C2CC2)cn3-c2cc(C#N)ccn2)CCN1C(=O)C(C)(C)F [Compound 130, (R)-2-(5-cyclopropyl-4-(4-(2-fluoro-2-methylpropanoyl)-3-methylpiperazin-1-yl)-7H-pyrrolo[2,3-d]pyrimidin-7-yl)isonicotinonitrile]?
A: EC50 [1]: < 100 nM; EC50 [2]: 100 to 500 nM; EC50 [3]: < 100 nM

Q: C[C@@H]1CN(c2ncnc3c2c(-c2ccccc2F)cn3-c2cc(C#N)ccn2)CCN1C(=O)C1(F)CC1 [Compound 131] was tested. Which EC50 [1] did it give?
A: < 100 nM

Q: And the EC50 [2]?
A: 100 to 500 nM

Q: What about the EC50 [3] of the same molecule?
A: < 100 nM
